Test results as given in PubChem BioAssay AID256 (DTP/NCI, 2004).
“And” between values parts separate entries of the source, which are not always exact repeats. Equal entries are not always repeated. Toxic doses and inconclusive results are not listed. Rule for the calls: active = survival T/C of 150% or more; inactive = T/C below 125% in these data.

Tested on: CD2F1 mice, L1210 leukemia ip, survival T/C
Test: NCI In Vivo Anticancer Drug Screen. Data for tumor model L1210 Leukemia (intraperitoneal) in CD2F1 (CDF1) mice
Details: higher = longer survival
Summary of the method: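 Mice carrying a transplanted tumor received test compound or vehicle alone. The value is the measurement in the treated group divided by that in the vehicle-treated control group.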

[1] = endpoint: mean survival time, dose: 100.0 mg/kg/injection, schedule: Q04DX002 (ip), vehicle: saline with Tween-80
[2] = endpoint: mean survival time, dose: 100.0 mg/kg/injection, schedule: Q01DX001 (ip), vehicle: saline with Tween-80
[3] = endpoint: mean survival time, dose: 200.0 mg/kg/injection, schedule: Q01DX001 (ip), vehicle: saline with Tween-80
[4] = endpoint: mean survival time, dose: 400.0 mg/kg/injection, schedule: Q01DX001 (ip), vehicle: saline with Tween-80
[5] = endpoint: mean survival time, dose: 100.0 mg/kg/injection, schedule: Q01DX009 (ip), vehicle: saline with Tween-80
[6] = endpoint: mean survival time, dose: 200.0 mg/kg/injection, schedule: Q01DX009 (ip), vehicle: saline with Tween-80
[7] = endpoint: mean survival time, dose: 400.0 mg/kg/injection, schedule: Q01DX009 (ip), vehicle: saline with Tween-80

Measured: T/C

CN(C)P(=O)(N(C)C)N(C)C
inactive: endpoint: mean survival time, dose: 100.0 mg/kg/injection, schedule: Q01DX009 (ip), vehicle: saline 105 % of control | endpoint: mean survival time, dose: 200.0 mg/kg/injection, schedule: Q01DX009 (ip), vehicle: saline 104 % of control | endpoint: mean survival time, dose: 400.0 mg/kg/injection, schedule: Q01DX009 (ip), vehicle: saline 107 % of control

COc1ccc(NCCOc2ccccc2Br)cc1
inactive: endpoint: mean survival time, dose: 100.0 mg/kg/injection, schedule: Q04DX003 (ip), vehicle: other 97 % of control | endpoint: mean survival time, dose: 200.0 mg/kg/injection, schedule: Q04DX003 (ip), vehicle: other 101 % of control | endpoint: mean survival time, dose: 400.0 mg/kg/injection, schedule: Q04DX003 (ip), vehicle: other 95 % of control

O=C(O)CCc1[nH]c2ccccc2c1CC(=O)O
inactive: [1] 91 % of control | endpoint: mean survival time, dose: 200.0 mg/kg/injection, schedule: Q04DX002 (ip), vehicle: saline with Tween-80 98 % of control | endpoint: mean survival time, dose: 400.0 mg/kg/injection, schedule: Q04DX002 (ip), vehicle: saline with Tween-80 119 % of control

CCCCCCCCc1ccc(NNC(N)=S)cc1
inactive: endpoint: mean survival time, dose: 1.56 mg/kg/injection, schedule: Q01DX009 (ip), vehicle: saline 93 % of control and 98 % of control and 101 % of control | endpoint: mean survival time, dose: 3.12 mg/kg/injection, schedule: Q01DX009 (ip), vehicle: saline 96 % of control (2×) and 106 % of control | endpoint: mean survival time, dose: 6.25 mg/kg/injection, schedule: Q01DX009 (ip), vehicle: saline 96 % of control and 97 % of control and 104 % of control | endpoint: mean survival time, dose: 12.5 mg/kg/injection, schedule: Q01DX009 (ip), vehicle: saline 97 % of control (2×) and 101 % of control

CCO
inactive: endpoint: mean survival time, dose: 50.0 mg/kg/injection, schedule: Q03HX024 (ip), vehicle: saline 100 % of control | endpoint: mean survival time, dose: 100.0 mg/kg/injection, schedule: Q03HX024 (ip), vehicle: saline 102 % of control | endpoint: mean survival time, dose: 125.0 mg/kg/injection, schedule: Q01DX009 (ip), vehicle: saline 103 % of control | endpoint: mean survival time, dose: 200.0 mg/kg/injection, schedule: Q03HX024 (ip), vehicle: saline 97 % of control | endpoint: mean survival time, dose: 250.0 mg/kg/injection, schedule: Q01DX009 (ip), vehicle: saline 100 % of control | endpoint: mean survival time, dose: 400.0 mg/kg/injection, schedule: Q03HX024 (ip), vehicle: saline 102 % of control | endpoint: mean survival time, dose: 500.0 mg/kg/injection, schedule: Q01DX001 (ip), vehicle: saline 109 % of control | endpoint: mean survival time, dose: 500.0 mg/kg/injection, schedule: Q01DX009 (ip), vehicle: saline 105 % of control | endpoint: mean survival time, dose: 1000.0 mg/kg/injection, schedule: Q01DX001 (ip), vehicle: saline 108 % of control | endpoint: mean survival time, dose: 1000.0 mg/kg/injection, schedule: Q01DX009 (ip), vehicle: saline 103 % of control | endpoint: mean survival time, dose: 2000.0 mg/kg/injection, schedule: Q01DX001 (ip), vehicle: saline 103 % of control | endpoint: mean survival time, dose: 4000.0 mg/kg/injection, schedule: Q01DX001 (ip), vehicle: saline 111 % of control

O=C(Sc1cccc2ccccc12)c1ccc([N+](=O)[O-])cc1
inactive: [2] 105 % of control | [3] 92 % of control | [4] 101 % of control

CC1CCC(CC(N)=O)C1(C)C (stereo unspecified)
inactive: [2] 97 % of control | [3] 105 % of control | [4] 97 % of control

Cn1c(-c2ccc(/C=N\N3CCN(/N=C/c4ccc(-c5c[n+]6ccsc6n5C)cc4)CC3)cc2)c[n+]2ccsc12
inactive: endpoint: median survival time, dose: 0.75 mg/kg/injection, schedule: Q01DX005 (ip), vehicle: saline with Tween-80 113 % of control | endpoint: median survival time, dose: 1.5 mg/kg/injection, schedule: Q01DX005 (ip), vehicle: saline with Tween-80 115 % of control | endpoint: median survival time, dose: 3.0 mg/kg/injection, schedule: Q01DX005 (ip), vehicle: saline with Tween-80 116 % of control

CCOC(=O)c1ccc(NCN2C(=O)CCC2=O)cc1
inactive: [5] 95 % of control | [6] 101 % of control | [7] 102 % of control

CC(=O)OCC(COC(C)=O)(COC(C)=O)COC(C)=O
inactive: [5] 97 % of control | endpoint: mean survival time, dose: 100.0 mg/kg/injection, schedule: Q04DX003 (ip), vehicle: saline with Tween-80 100 % of control | [6] 97 % of control | endpoint: mean survival time, dose: 200.0 mg/kg/injection, schedule: Q04DX003 (ip), vehicle: saline with Tween-80 96 % of control | [7] 98 % of control | endpoint: mean survival time, dose: 400.0 mg/kg/injection, schedule: Q04DX003 (ip), vehicle: saline with Tween-80 93 % of control

CCOc1ccc(OCC)c(NC(=O)Nc2ccccc2Cl)c1
inactive: endpoint: mean survival time, dose: 25.0 mg/kg/injection, schedule: Q04DX002 (ip), vehicle: saline with Tween-80 94 % of control | endpoint: mean survival time, dose: 50.0 mg/kg/injection, schedule: Q04DX002 (ip), vehicle: saline with Tween-80 94 % of control | [1] 90 % of control

O=C1OC(=O)c2c1ccc1ccc(Cl)cc21
inactive: [5] 102 % of control | [6] 96 % of control

Cc1cccc(C)c1NC(=S)NNC(=O)NNC(=S)Nc1c(C)cccc1C
inactive: [5] 95 % of control | [6] 95 % of control | [7] 105 % of control
